Here are results for nine compounds from ChEMBL document CHEMBL3132768, “Design, synthesis and biological evaluation of TAR and cTAR binders as HIV-1 nucleocapsid inhibitors” (Medchemcomm, 2013).

Calls of active or inactive are those of the source. No cut-off for these calls is given here.

One may read the ΔTm as the change in melting temperature against a reference sample. Usually logP stands for the decadic logarithm of the partition coefficient of the neutral form, usually between octanol and water. A word on the IC50: it is the concentration needed to halve the response being measured.

Data set [1] relates to Jurkat. Description: Cytotoxicity against human Jurkat cells up to 100 uM after 72 hrs by MTT assay. In kind it is cell-based.
Data set [2] deals with Nucleic Acid. The data set is described as follows: Binding affinity to HIV1 TAR/cTAR RNA/DNA duplex assessed as change in melting temperature by […]. Type of data set: nucleic-acid assay. To be noted: Human immunodeficiency virus 1.
The nature of data set [3]: Octanol-water partition co-efficient, log P of the compound by shake flask method. Type of data set: physicochemical.
The subject of data set [4] is Nucleic Acid. Description: Binding affinity to HIV1 TAR RNA assessed as change in melting temperature by […]. In kind it is nucleic-acid assay. To be noted: Human immunodeficiency virus 1.
Data set [5] relates to Human immunodeficiency virus 1. The data set is described as follows: Antiviral activity against HIV1 infected in human Jurkat cells assessed as inhibition of viral replication after 3 to 4 days. In kind it is functional, organism-based.
For data set [6], the system named is Human immunodeficiency virus 1. Description: Binding affinity to HIV1 cTAR DNA assessed as change in melting temperature by […].
A short description of data set [7]: Inhibition of NC-induced HIV1 cTAR destabilization assessed as change in melting temperature by fluorescence quenching assay. The arrangement: species or system Human immunodeficiency virus 1.
Data set [8] in a line: Inhibition of NC-induced HIV1 TAR destabilization assessed as change in melting temperature by fluorescence quenching assay. On the set-up: species or system Human immunodeficiency virus 1.
Data set [9] is described as follows: Inhibition of NC-induced HIV1 TAR/cTAR annealing assessed as change in melting temperature preincubated for 15 mins before NC addition measured after 15 mins by gel electrophoresis. The arrangement: species or system Human immunodeficiency virus 1.
The test system of data set [10] is Jurkat. Description: Drug uptake in human Jurkat cells at 100 uM after 3 hrs by spectrophotometry. In kind it is ADME, cell-based.
For data set [11], the system named is Human immunodeficiency virus 1. The data set is described as follows: Antiviral activity against HIV1 infected in human Jurkat cells assessed as inhibition of viral replication by CAT gene-based transcomplementation assay. In kind it is functional, organism-based.

For the compound `NCC(N)C(=O)NCCC(=O)Nc1ccc2c(c1)C(=O)c1ccc(NC(=O)CCNC(=O)C(N)CN)cc1C2=O.O=C(O)C(F)(F)F.O=C(O)C(F)(F)F.O=C(O)C(F)(F)F.O=C(O)C(F)(F)F` (stereo unspecified), in the data set with Jurkat [1], the Activity entry is “Non-toxic”. In addition, the ΔTm in the data set on Nucleic Acid [2] turned out to be 0.28 °C; with Nucleic Acid [4], 2.38 °C; in data set [6], 1.92 °C. In addition, in data set [3], the logP was -2.56. Moreover, the outcome in [5] was inactive. For the same compound, the results for the IC50 in data set [7] and in data set [8] were 22.8 µM and 21.4 µM, respectively.
With `NCCCCC(N)C(=O)NCCC(=O)Nc1ccc2c(c1)C(=O)c1ccc(NC(=O)CCNC(=O)C(N)CCCCN)cc1C2=O` (stereo unspecified), the shift in melting temperature (ΔTm) came to 1.12 °C in the data set on Nucleic Acid [2], 2.88 °C in the data set on Nucleic Acid [4] and 2.14 °C in [6]. The IC50 in [9] was found to be 44.5 µM; in data set [7], 3.84 µM; in [8], 3.71 µM. In addition, in the data set with Jurkat [10], the Drug uptake entry is on record as “Not Active”.
With `Nc1ccc(CC(N)C(=O)NCCC(=O)Nc2ccc3c(c2)C(=O)c2ccc(NC(=O)CCNC(=O)C(N)Cc4ccc(N)cc4)cc2C3=O)cc1.O=C(O)C(F)(F)F.O=C(O)C(F)(F)F.O=C(O)C(F)(F)F.O=C(O)C(F)(F)F` (stereo unspecified), the Activity entry with Jurkat [1] is “Non-toxic”. In addition, the lipophilicity (logP) in data set [3] was -2.51. Besides, the outcome in data set [5] was inactive. The IC50 in data set [9] is 42.3 µM.
In the case of `NC1(C(=O)NCCC(=O)Nc2ccc3c(c2)C(=O)c2ccc(NC(=O)CCNC(=O)C4(N)CCNCC4)cc2C3=O)CCNCC1.O=C(O)C(F)(F)F.O=C(O)C(F)(F)F.O=C(O)C(F)(F)F.O=C(O)C(F)(F)F`, the Activity result with Jurkat [1] is “Non-toxic”. The results for the thermal shift (ΔTm) (in the data set on Nucleic Acid [2]; with Nucleic Acid [4]; in [6]) were 1.12 °C, 2.23 °C and 2.14 °C, respectively. The logP in [3] is -2.91. For the same compound, the outcome in data set [5] was inactive. Further, the concentration for half-maximal inhibition (IC50) in [7] turned out to be 15.4 µM; in [8], 13.8 µM.
As to `NCCC(N)C(=O)NCCC(=O)Nc1ccc2c(c1)C(=O)c1ccc(NC(=O)CCNC(=O)C(N)CCN)cc1C2=O.O=C(O)C(F)(F)F.O=C(O)C(F)(F)F.O=C(O)C(F)(F)F.O=C(O)C(F)(F)F` (stereo unspecified), the Activity result with Jurkat [1] was “Non-toxic”. Also, the shift in melting temperature (ΔTm) amounted to 1.77 °C with Nucleic Acid [2], 8.95 °C in the data set on Nucleic Acid [4] and 10.5 °C in data set [6]. Also, the log partition coefficient (logP) in [3] was -2.55. Besides, the result in data set [5] was inactive. Moreover, the figures for the IC50 in [9], in data set [7] and in data set [8] were 44.1 µM, 7.1 µM and 6.3 µM, respectively.
For `NCC1CCC(C(=O)NCCC(=O)Nc2ccc3c(c2)C(=O)c2ccc(NC(=O)CCNC(=O)C4CCC(CN)CC4)cc2C3=O)CC1.O=C(O)C(F)(F)F.O=C(O)C(F)(F)F` (stereo unspecified), the Activity result in the data set on Jurkat [1] is on record as “Non-toxic”. The shift in melting temperature (ΔTm) with Nucleic Acid [2] worked out at 0.84 °C; in the data set on Nucleic Acid [4], 0.97 °C; in data set [6], 1.86 °C. Also, the logP in data set [3] is -2.31. The result in data set [5] was inactive. For the same compound, the concentration for half-maximal inhibition (IC50) in [7] was 13.7 µM; in data set [8], 17.6 µM.
Turning to `NCCCC(N)C(=O)NCCC(=O)Nc1ccc2c(c1)C(=O)c1ccc(NC(=O)CCNC(=O)C(N)CCCN)cc1C2=O.O=C(O)C(F)(F)F.O=C(O)C(F)(F)F.O=C(O)C(F)(F)F.O=C(O)C(F)(F)F` (stereo unspecified), the Activity result with Jurkat [1] was “Non-toxic”. The thermal shift (ΔTm) with Nucleic Acid [2] was 3.1 °C; in the data set with Nucleic Acid [4] it was 16.2 °C; in data set [6], 13.8 °C. The compound further displayed a log partition coefficient (logP) in data set [3] of -2.51. Moreover, in [11], the result was inactive. The IC50 came out at 21.9 µM in [9], 2.04 µM in data set [7] and 3.2 µM in [8].
On to `O=C(CCNC(=O)C1CCNCC1)Nc1ccc2c(c1)C(=O)c1ccc(NC(=O)CCNC(=O)C3CCNCC3)cc1C2=O.O=C(O)C(F)(F)F.O=C(O)C(F)(F)F`, for which the Activity entry with Jurkat [1] is given as “Non-toxic”. In addition, the ΔTm with Nucleic Acid [2] worked out at 0.65 °C; in the data set on Nucleic Acid [4] it was 1.49 °C; in data set [6] it was 1.11 °C. The compound also came in with a lipophilicity (logP) in data set [3] of -2.91. Besides, the outcome in [5] was inactive. In addition, the IC50 in data set [9] stood at 95.8 µM; in [7], 36.3 µM; in data set [8] it was 42.9 µM.
With `NCCC(=O)NCCC(=O)Nc1ccc2c(c1)C(=O)c1ccc(NC(=O)CCNC(=O)CCN)cc1C2=O.O=C(O)C(F)(F)F.O=C(O)C(F)(F)F`, the Activity entry in the data set on Jurkat [1] is listed as “Non-toxic”. In addition, the ΔTm in the data set with Nucleic Acid [2] is 1.12 °C; in the data set on Nucleic Acid [4], 2.79 °C; in data set [6], 2.14 °C. This compound showed a logP in data set [3] of -2.98. Further, the outcome in data set [5] was inactive. In addition, the IC50 is 76.8 µM in [9], 11.8 µM in data set [7] and 10 µM in [8].
